Results on 3 compounds are retold here after patent publication US11951197B2, “Use of volatile compounds to modulate the perception of floral muguet” (FIRMENICH SA, priority 2018, dated 2024).

For data set [1], the target named is T1, OR10J5 olfactory receptor (Homo sapiens, UniProt Q8NHC4).
T1 construct: Flag; Rho (rhodopsin-derived tag); expressed in transfected cells
T1 sequence (Q8NHC4 1-309): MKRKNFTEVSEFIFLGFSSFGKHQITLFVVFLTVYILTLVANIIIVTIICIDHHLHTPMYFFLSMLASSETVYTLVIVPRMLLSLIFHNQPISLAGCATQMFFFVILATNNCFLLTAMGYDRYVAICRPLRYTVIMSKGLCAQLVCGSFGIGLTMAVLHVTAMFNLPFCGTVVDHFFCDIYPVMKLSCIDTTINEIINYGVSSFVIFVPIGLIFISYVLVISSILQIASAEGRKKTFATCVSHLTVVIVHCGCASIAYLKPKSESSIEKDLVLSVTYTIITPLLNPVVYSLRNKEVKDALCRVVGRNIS
The experiment in a line: Dose-response confirmation of enhancer candidates, alone and with EC20 LYRAL®. In kind it is cell-based. The conditions noted are these: response to LYRAL® raised beyond EC20 without measurable intrinsic activity. As to the method: (§1) A dose response curve showing the activation of OR10J5 in response to the floral muguet compound 3-(4-hydroxy-4-methylpentyl)cyclohex-3-ene-1-carbaldehyde, 4-(4-hydroxy-4-methylpentyl)cyclohex-3-ene-1-carbaldehyde or a mixture thereof (sold under the tradename LYRAL®, hereinafter referred to as “LYRAL®”) is shown in FIG. 1. Using a cell-based assay, OR10J5 activity was tested in a HEK293T cell line wherein the endogenous chaperone RTP1 gene has been activated and the odorant receptor chaperone was expressed according to the methods disclosed in International Patent Application Publication No. WO2016/201153 A1. The Flag-Rho-tagged receptor was co-transfected with the olfactory canonical G-protein Golf and was exposed to a binary mixture of a single concentration of LYRAL® and a test compound.
A library of volatile compounds was used to create binary mixtures of each compound with LYRAL® at approximately EC20, a concentration eliciting only approximately 20% of full activity level of OR10J5 by itself. An activation cell-based assay was used for the initial enhancer candidate identification as disclosed in WO2019122236. Single binary mixture-induced receptor activity was detected by measuring the cAMP increase in the cytosol using an HTRF (Homogenous Time-Resolved Fluorescence unit) based kit (CisBio, cAMP dynamic 2 kit, 62AM4PEJ).
The 37 candidates remaining in Table 2 were identified and were tested in two parallel dose-response experiments to confirm the true enhancement properties of the potential candidates. First, a dose-response of each individual candidate was performed to determine if it was an agonist by itself. Second, the same candidate dose-response curve in the presence of EC20 LYRAL® concentration (generating 20% activity on OR10J5) was assessed for activity level increase.

Data set [2] is described as follows: Odor detection threshold (ODT) forced-choice triangle tests for LYRAL® with background odor. In kind it is in vivo, human. The conditions noted are these: 28 panelists; enhancer at 0.1% vs neutral compound at 7%; main effect of Material p=0.03, interaction p=0.052. As to the method: Sensitivity of human individuals to LYRAL® was evaluated by performing an odor detection threshold (ODT) test. The ODT test consisted of identifying the concentration for which 50%, preferably 66%, of the panelists are able to determine which of three containers contains the target compound LYRAL® in a series of forced-choice triangle tests. Two tests were performed to calculate the ODT in mixtures containing LYRAL® plus a perceivable background odor of chemically similar molecules a) the enhancer, 3-(4-methylcyclohex-3-en-1-yl)butanal and b) the non-enhancing volatile compound, 3-[(1R)-4-methyl-3-cyclohexen-1-yl]-1-butanol. These two molecules are chemically similar. The perceived intensity of the two background odors was monitored to be isointense to control that the responses recorded answer were intensity independent.
28 panelists were given a series of triangle tests with increasing concentrations of LYRAL® in the presence of 3-(4-methylcyclohex-3-en-1-yl)butanal at a concentration of 0.1%. Within each triangle test, the three samples contained 3-(4-methylcyclohex-3-en-1-yl)butanal at 0.1% and one sample also contained LYRAL®. 28 panelists were given a series of triangle tests with increasing concentration of Lyral® in the presence of 3-[(1R)-4-methyl-3-cyclohexen-1-yl]-1-butanol at a concentration of 7%. […]

Data set [3] has as its target T2, OR10J5 (Homo sapiens, UniProt Q8NHC4).
T2 construct: Flag; Rho (rhodopsin-derived tag); expressed in transfected cells
T2 sequence (Q8NHC4 1-309): T1 sequence (Q8NHC4 1-309)
The data set is described as follows: LYRAL® dose-response with a steady concentration of test compound (EC50-fold shift). In kind it is cell-based. The conditions noted are these: LYRAL® + steady concentration of compound vs LYRAL® alone. As to the method: as §1
(§2) LYRAL® enhancement specificity was tested on compounds that were structurally similar to enhancers identified. Dose response curves to LYRAL® were obtained in the presence of a steady concentration of a test compound and compared to a dose-response curve of LYRAL® alone. The resulting enhancement was quantified by means of EC50-fold shift (potency increase) and the efficacy span ratio (efficacy increase).
The EC50-fold shift was obtained by dividing the EC50 of LYRAL®+compound by the reference EC50 of LYRAL® alone. […]

In data set [4] the target is T3, Olfr16 (Mus musculus, UniProt Q62007).
T3 construct: expressed in transfected cells
T3 sequence (Q62007 1-309): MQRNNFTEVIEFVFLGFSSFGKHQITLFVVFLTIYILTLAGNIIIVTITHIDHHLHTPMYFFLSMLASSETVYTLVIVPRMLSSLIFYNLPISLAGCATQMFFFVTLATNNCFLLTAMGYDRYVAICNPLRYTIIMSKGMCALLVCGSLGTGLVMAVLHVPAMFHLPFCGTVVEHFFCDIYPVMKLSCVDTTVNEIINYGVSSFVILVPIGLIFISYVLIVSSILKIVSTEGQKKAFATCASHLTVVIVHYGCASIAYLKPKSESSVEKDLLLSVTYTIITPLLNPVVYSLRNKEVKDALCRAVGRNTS
Described as above. The format is cell-based. The settings on record: Olfr16 (mouse ortholog); LYRAL® + steady concentration of compound vs LYRAL® alone. As to the method:
as §2
The EC50-fold shift was obtained by dividing the EC50 of LYRAL®+compound by the reference EC50 of LYRAL® alone. The span ratio was obtained by dividing the span of LYRAL®+compound by the reference span of LYRAL® alone.

The target in data set [5] is T2, OR10J5. The experiment in a line: LYRAL® dose-response with serial enhancer concentrations, allosteric EC50 shift model. In kind it is cell-based. The procedure: Functional dose-response experiments were performed to reveal the allosteric nature of the interaction between 3-(1,3-benzodioxol-5-yl)-2-methylpropanal, 3-(4-methylcyclohex-3-en-1-yl)butanal, 2,6-dimethylhept-5-enal and heptanal and OR10J5. The level of enhancement of OR10J5's activation was evaluated at distinct concentrations of each enhancer. Using the same cell-based assay described earlier, dose response curves of OR10J5 to LYRAL® in the presence of serial concentrations of the enhancers spanning from 0 to 600 μM were performed, see FIG. 5. The curves were obtained by applying the simplified Allosteric EC50 shift effect equation (available in Prism7) derived from the ternary complex interaction model. The enhancement levels recorded were not linearly dependent on the concentration of the enhancer, and the following key parameters values for α (the cooperativity factor) and KB (the equilibrium dissociation constant of the enhancer) were obtained from the model for each enhancer: 3-(1,3-benzodioxol-5-yl)-2-methylpropanal, α=6.3 and KB=10 μM; 3-(4-methylcyclohex-3-en-1-yl)butanal, α=7.5 and KB=15 μM; 2,6-dimethylhept-5-enal, α=4.1 and KB=16 μM; and heptanal; α=3.2 and KB=51 μM. α>1 is indicative of positive allosteric modulation.

Data set [6] deals with T2, OR10J5. The experiment in a line: (+−)-2,5-dimethyl-2-indanmethanol dose-response with a steady concentration of test compound. In kind it is cell-based. The settings on record: OR10J5; for EC50 fold shift of (+−)-2,5-dimethyl-2-indanmethanol: agonist + steady concentration of compound vs agonist alone. The procedure: OR10J5 activity enhancement was tested with an additional agonist and with one of the test compounds and conditions described in the Examples above. Dose response curves to (+−)-2,5-dimethyl-2-indanmethanol was obtained in the presence of a steady concentration of the test compound and compared to a dose-response curve of the agonist alone. The resulting enhancement was quantified by means of EC50-fold shift (potency increase) and the efficacy span ratio (efficacy increase) as described above.

Turning to `CC1=CC[C@H](C(C)CC=O)CC1` (stereo partly drawn) [3-(4-methylcyclohex-3-en-1-yl)butanal], the “enhancement of OR10J5 LYRAL® activation (true enhancer)” value in data set [1] is listed as “potent enhancement”. Besides, the “proportion of correct LYRAL® detection responses with increasing LYRAL® concentration” value in data set [2] is listed as “proportion of correct responses increased at a higher rate”.
For the compound `CC(C=O)Cc1ccc2c(c1)OCO2` (stereo not drawn) [3-(1,3-benzodioxol-5-yl)-2-methylpropanal], in data set [1], the “enhancement of OR10J5 LYRAL® activation (true enhancer)” value is reported as “potent enhancement”. The “EC50 fold shift of LYRAL® (potency increase)” value turned out to be 9.2 fold in data set [3] and 5 fold in data set [4]. Also, the Kb in data set [5] came out at 10 µM. In addition, in data set [5] (enhancer 0 to 600 μM, allosteric EC50 shift equation (Prism7), α>1 indicates positive allosteric modulation), the “α (cooperativity factor)” value was determined as 6.3. For the same compound, the “EC50 fold shift of (+−)-2,5-dimethyl-2-indanmethanol” value in data set [6] is 8.6 fold. The “efficacy increase (span ratio) of (+−)-2,5-dimethyl-2-indanmethanol” value in data set [6] (within the dynamic range of the dose response) is listed as 1.7 fold.
For `O=Cc1ccc2c(c1)OCO2` [benzo[d][1,3]dioxole-5-carbaldehyde, reference compound], the “EC50 fold shift of LYRAL® (potency increase)” value was 1.8 fold in data set [3] and 1.5 fold in data set [4]. Further, in data set [6], the “EC50 fold shift of (+−)-2,5-dimethyl-2-indanmethanol” value is reported as 2.0 fold.
